Test results reported in patent US5574015A, “Isosteric antiherpes peptide derivatives” (priority 1994, dated 1996).
pEC50: −log10 of the molar value.

Test system: HSV-2
Experiment: Inhibition of Herpes Simplex Virus (HSV-2) replication in cell culture
Type: cell-based, HSV-2 strain HG-52
Experimental: Inhibition of Herpes Simplex Virus (HSV-2). Replication in Cell Culture
BHK-21/C13 cells (ATCC CCL 10) are incubated for two days in 150 cm^2 T-flasks (1.5×10^6 cells/flask) with alpha-MEM medium (Gibco Canada Inc., Burlington, Ontario, Canada) supplemented with 8% (v/v) fetal bovine serum (FBS, Gibco Canada Inc.). The cells are trypsinized and then transferred to fresh media in a 24 well plate to give 2.5×10^5 cells in 750 μL of media per well. The cells are incubated at 37° for a period of 6 h to allow them to adhere to the plate. Thereafter, the cells are washed once with 500 μL of alpha-MEM supplemented with 0.5% (v/v) FBS and then incubated with 750 μL of the see media (low serum) for 3 days. After this period of serum starvation, the low serum medium is removed and the cells are incubated in 500 μL of BBMT for 2 to 3 hours. {BBMT medium is described by P. Brazeau et al., Proc. Natl. Acad. Sci. USA, 79, 7909 (1982).} Thereafter, the cells are infected with HSV-2 (multiplicity of infection=0.02 PFU/cell) in 100 μL of BBMT medium. (Note: The HSV-2 used was strain HG-52, see Y. Langelier and G. Buttin, J. Gen. Virol., 57, 21 (1981); the virus was stored at -80°) Following 1 h of virus adsorption at 37°, the media is removed and the cells are washed with BBMT (3×250 μL). The cells in each well are incubated with or without (control) appropriate concentrations of the test agent dissolved in 200 μL of BBMT medium. After 29 h of incubation at 37°, the infected cells are harvested by first freezing the plate at -80°, followed by thawing. The cells in each well are scraped off the surface of the well with the help of the melting ice fragments. After complete thawing, the cell suspensions are collected and each well is rinsed with 150 μL of BBMT medium. The viral sample (suspension plus washing) is sonicated gently for 4 min at 4°. Cell debris are removed by centrifugation (1000 times gravity for 10 minutes at 4°). The supernatant is collected and stored at -80° until determination of viral titer.
Viral titration was performed by a modification of the colorimetric assay method of M. Langlois et al., Journal of Biological Standardization, 14, 201 (1986).
More specifically, in a similar manner as described above, BHK-21/C13 cells are trypsinized and transferred to fresh media in a 96 well microtiter plate to give 20,000 cells in 100 μL of media per well. The cells in the prepared plate are incubated at 37° for 2 h. During that time, the viral sample is thawed and sonicated gently for 15 seconds, and log dilutions of the sample are prepared (1/5 sequential: 50 μL of the sample plus 200 μL of BBMT medium, sequential dilutions being done with a multichannel pipette.
On completion of the above 2 hour incubation of the BHK-21/C13 cells, the media is replaced with alpha-MEM medium supplemented with 3% (v/v) FBS. The cells are now ready to be infected with the various sample dilutions of virus. Aliquots (50 μL) of the various dilutions are transferred into the appropriate wells of the plate. The resulting infected cells are incubated for 2 days at 37°. Then 50 μL of a 0.15% (v/v) solution of neutral red dye in Hank's Balanced Salt Solution (pH 7.3, Gibco Canada Inc.) is added to each well. The prepared plate is incubated for 45 min at 37°. Medium from each well is then aspirated and the cells are washed once with 200 μL of Hank's Balanced Salt Solution. […]

[1] = Table II, BHK-21/C13 cells, 29 h incubation, 50% inhibition of virus replication
[2] = Table V, cell culture assay of example 11

## Et2 CHNHC(O)--Tbg--CH2 --(R)-CH{CH2 C(O)--(cyclopentyl)}C(O)--Asp(cyPn)--NHCH2 CMe3
[1]
  pEC50: 4.30

## Pr2 CHNHC(O)--Tbg--CH2 --(R)-CH(CH2 C(O)--CMe3)C(O)--Asp(cyPn)--γMeLeucinol
[1]
  pEC50: 4.52

## Pr2 CHNHC(O)--Tbg--CH2 --(R)-CH{CH2 --C(O)--(cyclohexyl)}C(O)--Asp(cyPn)--NHCH2 CMe3
[2]
  pEC50: 4.21

## Pr2 CHNHC(O)--Tbg--CH2 --(R)-CH(CH2 --C(O)CMe2 Et)C(O)--Asb(cyPn)--NHCH2 --CMe3
[2]
  pEC50: 4.48

## Pr2 CHNHC(O)--Tbg--CH2 --(R)-CH{CH2 --C(O)--(cyclobutyl)}C(O)--Asp(cyPn)--NHCH2 CMe3
[2]
  pEC50: 4.34

## Pr2 CHNHC(O)--Tbg--CH2 --(R)-CH(CH2 --C(O)CHMe2)C(O)--Asp(cyPn)--NHCH2 CMe3
[2]
  pEC50: 4.41

## Pr2 CHNHC(O)--Tbg--CH2 --(R)-CH{CH2 --C(O)--(1-methylcyclopentyl)}C(O)--Asp(cyPn)--NHCH2 CMe3
[2]
  pEC50: 4.46

## PhCH2 CH2 C(O)--(N-Me)Val-Tbq-CH2 --(R)--CH(CH2 C(O)CMe3)C(O)-Asp(cyPn)-γMeLeucinol [Title Compound of Example 6]
[1]
  pEC50: 4.82
Table III, agent alone, BHK-21/C13 cells
  pEC50: 4.72

## Pr2 CHNHC(O)--NH--(S)-CH(CMe2 Et)--C(O)--CH2 --(R)-CH(CH2 C(O)CMe3)C(O)--Asp--(cyPn)--NH--(R)-CH(Me)CMe3
[2]
  pEC50: 4.89

## Me(CH2 =CH--CH2)2 CNHC(O)-Tbg-CH2 --(R)--CH(CH2 C(O)CMe3)C(O)-Asp(cyPn)-NHCH2 CMe3 [Me(CH2 =CHCH2)2 --CNHC(O), NHCH2 CMe3]
Table IV, cell culture assay of example 11
  pEC50: 4.52

## Et2 CHNHC(O)--Tbg--CH2 --(R)-CH(CH2 C(O)--CMe3)C(O)--Asp(cyPn)--NHCH2 CMe3
[1]
  pEC50: 4.25

## Pr2 CHNHC(O)--Val--CH2 --(R)-CH(CH2 --C(O)CMe3)C(O)--Asp(cyPn)--NH--(R)-CH(Me)CMe3
[2]
  pEC50: 4.43

## PhCH2 CH2 C(O)--(N--Me)Val--Tbg--CH2 --(R)-CH(CH2 C(O)CMe3)C(O)--Asp(cyPn)--γMeLeu--OH
[1]
  pEC50: 4.19

## Et2 CHNHC(O)--Tbg--CH2 --(S)-CH{CH2 C(O)--(pyrrolidino)}C(O)--Asp(cyPn)--γMeLeucinol
[1]
  pEC50: 3.70

## PhCH2 CH2 C(O)--(N--Me)Val--Tbg--CH2 --(R)-CH(CH2 C(O)CMe3)C(O)--Asp(cyPn)--γMeLeu--NH2
[1]
  pEC50: 4.22

## Pr2 CHNHC(O)--Tbg--CH2 --(R)-CH(CH2 --C(O)CMe3)C(O)--Asp{(R)-allyl}--NHCH2 CMe3
[2]
  pEC50: 4.21

## Pr2 CHNHC(O)--Tbg--CH2 --(R)-CH--(CH2 C(O)CH2 CMe3)C(CF)--Asp(cyPn)--Leu--OH
[2]
  pEC50: 4.10

## Nc1nc2c(ncn2COCCO)c(=O)[nH]1 [acyclovir, reference compound]
Human alphaherpesvirus 2, Table III, acyclovir + 2 μM of peptide (title peptide of example 6)
  pEC50: 5.85
Human alphaherpesvirus 2, Table III, acyclovir + 4 μM of peptide (title peptide of example 6)
  pEC50: 6.05
Human alphaherpesvirus 2, Table III, acyclovir + 6 μM of peptide (title peptide of example 6)
  pEC50: 6.05
Human alphaherpesvirus 2, Table III, acyclovir + 8 μM of peptide (title peptide of example 6)
  pEC50: 6.10
Human alphaherpesvirus 2, Table III, acyclovir + 10 μM of peptide (title peptide of example 6)
  pEC50: 6.38
Combination of acyclovir and title peptide of example 6, FIG. 1
  synergism by the isobole method: positive result
Combinations with title peptide of example 6, EC50's significantly lower than acyclovir alone
  action of the combination of acyclovir and the peptide versus acyclovir alone: synergistic action

## Pr2 CHNHC(O)--Tbg--CH2 --(R)-CH(CH2 C(O)--CMe3)C(O)--Asp(cyPn)--NHCH2 CMe3
[1]
  pEC50: 4.62

## Pr2 CHNHC(O)--Tbg--CH2 --(R)-CH(CH2 --C(O)CMe3)C(O)--Asp{(R)-Pr}--NHCH2 CMe3
[2]
  pEC50: 4.34
